Experimental data taken from patent US20080039410A1, “Inositol 1,4,5-Trisphosphate Receptor Mutants and Uses Thereof” (priority 2004, published 2008).
Where no end group is shown, it is not given here. The star is where a group is joined. Myristoyl = CCCCCCCCCCCCCC(=O)*

How the values were obtained:
[1] = test system: S2+ InsP3R-1; experiment: Potentiation of CCh-induced Ca2+ release after PKA activation (forskolin), S2+ InsP3R-1 constructs in DT-40 3ko cells; assay type: cell-based, rat; conditions: 30 min pretreatment, cells expressing S2+ InsP3R-1
Experimental: DT-40 cells lacking all three InsP3 receptor subtypes DT-40 3ko were transfected using electroporation, 350 V and 950 μF. 2×10^7 cells were co-transfected with 25 μg of the InsP3R cDNA, 25 μg of the muscarinic type 3 (M3) receptor, and 4 μg of the red fluorescent protein plasmid pHcRed1-N1. Cells were incubated with DNA in 500 μL of Optimem media on ice for 10 minutes. The cell/DNA mixture was electroporated, incubated on ice for 30 minutes, brought up to 5 ml with Optimem and placed in a 5% C02 incubator at 39° C. for 5 hours. The cells were then centrifuged and resuspended in 12 ml of complete RPMI media. Transfection efficiency was typically ˜20%. Experiments were performed within 32 hours of transfection.
(§1) Transfected DT-40 3ko cells were washed once in a HEPES-buffered physiological saline solution (HEPES-PSS) containing (in mM) 5.5 glucose, 137 NaCl, 0.56 MgCl2, 4.7 KCl, 1 Na2HPO4, 10 HEPES (pH 7.4), 1.2 CaCl2 and 1% w/v Bovine Serum Albumin. Cells were then resuspended in BSA HEPES-PSS with 1 μM Fura-2 (AM), placed on a 15 mm glass coverslip in a low volume perfusion chamber (Warner Instruments) and allowed to adhere for 30 minutes at room temperature. Cells were perfused continually for 10 minutes with HEPES-PSS before experimentation to allow Fura-2 de-esterification. A field of cells for each experiment was chosen that contained a wide range of transfection efficiency based upon the intensity of red fluorescence emitted when excited at 560 nm. [Ca^2+]i imaging was performed essentially as previously described using an inverted epifluorescence Nikon microscope with a 40× oil immersion objective lens (numerical aperture, 1.3). Cells were excited alternately with light at 340 and 380 nm (±10 mn bandpass filters, Chroma) using a monochrometer (TILL Photonics). Fluorescence images were captured and digitized with a digital camera driven by TILL Photonics software. Images were captured every 2 seconds with an exposure of 35 ms and no binning. 340/380 ratio images were calculated online and stored immediately to hard disk.
(§2) The effects of treatment were determined by normalizing the peak change in fluorescence ratio by stimulation following forskolin or 8-Br cGMP exposure to that of stimulation in control HEPES-PSS. Thus, pooled data represents a normalized fold increase over control for the treated trial. Two tailed heteroscedastic t-tests with P values<0.05 were considered to have statistical significance.
Experiments were performed in DT-40 3ko cells transfected with S2^+ InsP3R-1. Since there are no reports of Gαq coupled receptors expressed in DT-40 cells, initial experiments were performed eliciting [Ca^2+]i changes by stimulating the endogenous B cell receptor with α-IgM antibody. […] Thus, in all further experiments, DT-40 3ko cells were co-transfected with the M3 receptor, and HcRed to facilitate identification of transfected cells (inset FIG. 1). Stimulation of M3 receptors with the muscarinic agonist carbachol (CCh), provided a convenient means of stimulating [Ca^2+]i changes, presumably through Gαq-induced activation of phospholipase C and production of InsP3. […] The potentiation was most marked when threshold elevations in [Ca^2+]i were evoked by the initial exposure to CCh and therefore only cells in which the initial CCh treatment evoked a Δ 340/380 ratio of<0.2 ratio units were included for analysis. […] [Ca^2+]i changes were never evoked by CCh treatment in cells transfected with only M3 cDNA in the absence of InsP3R or likewise InsP3R with no M3 cDNA.
The effects of treatment were determined by normalizing the peak change in fluorescence ratio by stimulation following forskolin or 8-Br-cGMP exposure to that of stimulation in control HEPES-PSS. Thus, pooled data represent a normalized fold increase over control for the treated trial. In all cases where statistical significance is indicated, two-tailed heteroscedastic t tests were performed. […]

[2] = test system: S2+ InsP3R-1; experiment: Potentiation of CCh-induced Ca2+ release after PKG activation (8-Br cGMP), S2+ InsP3R-1 constructs in DT-40 3ko cells; assay type: cell-based, rat; conditions: 30 min pretreatment, cells expressing S2+ InsP3R-1
Experimental: as §1, §2
Similar experiments were performed to assess the effects on Ca^2+ release of phosphorylating InsP3R-1 with PKG. Cells transfected with S2^+ InsP3R-1 together with M3 receptor and HcRed were stimulated with low, threshold concentrations of CCh (25-50 nM) followed by a 10 min treatment with 10 μM 8-Br cGMP, a specific activator of PKG [48]. […] In a similar fashion to PKA activation, this was manifested as an increase in the CCh-induced initial peak (FIG. 4A and pooled data FIG. 4E).
The effects of treatment were determined by normalizing the peak change in fluorescence ratio by stimulation following forskolin or 8-Br-cGMP exposure to that of stimulation in control HEPES-PSS. Thus, pooled data represent a normalized fold increase over control for the treated trial. In all cases where statistical significance is indicated, two-tailed heteroscedastic t tests were performed. P values<0.05 were considered to indicate statistical significance and are denoted by an asterisk in the figures.
Despite these differences, experiments were performed to define further the phosphorylation sites important for regulation of Ca^2+ release by PKG. […] In contrast, in cells expressing S2+SE no effect on CCh-induced Ca^2+ release following activation of PKG was observed (FIG. 23C and pooled data in FIG. 23D).

[3] = test system: InsP3R-III; experiment: PKA stimulation of Ca2+ signals in DT-40 3ko cells transfected with rat InsP3R-III; assay type: cell-based

## PKI: cell-permeable PKA inhibitor, myristolyated PKI (Myristoyl-SGRTGRRNA; UniProt P61925 14-22, looked up, fragment) [reference compound]
[1]
  effect of PKI on forskolin-induced enhancement of Ca^2+ release: completely abolishes
[1]; listed as myristolyated PKI
  effect of PKI on forskolin-induced enhancement of Ca^2+ release: completely abolished
[2]
  effect of PKI on 8-Br cGMP-induced enhancement of Ca^2+ release: does not affect
[2]; listed as myristolyated PKI
  effect of PKI on 8-Br cGMP-induced enhancement of Ca^2+ release: did not alter

## rat InsP3R-III: rat type 3 InsP3 receptor transfected into DT-40 3ko cells
[3]
  effect of stimulating PKA on Ca^2+ signals: inhibited
